Assays:
[1] = biological target: T1, succinate dehydrogenase (Botrytis cinerea, UniProt A0A384J5E4+A0A384J8V8+A0A384JHJ5); experiment: Enzyme inhibition: succinate dehydrogenase activity in Botrytis cinerea mitochondria (DCPIP reduction); type: biochemical; conditions: concentration required to inhibit the rate of DCPIP reduction by 50%; Botrytis cinerea isolate Nick mitochondria; read-out: I50 (μM conc.)
T1 construct: succinate-DCPIP reductase assay with KCN
Summary of the method: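 Crude mitochondria from Botrytis cinerea isolate Nick mycelia, prepared by bead-beating and differential centrifugation, started reactions. SDH activity followed as DCPIP reduction at 600 nm in 50 mM K-phosphate pH 7.2 with 1 mM KCN, 45 μM DCPIP, 17 mM succinate, 1% acetone. I50 from semilog inhibition plots, corrected for succinate-free rates.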

[2] = test system: Botrytis cinerea; experiment: Eggplant grey mold; type: in vivo; parameters: scale not given here; conditions: inoculated 24 h later, rated after 3-4 days; for Disease Control Rating at 500 ppm: eggplant sprayed with 500 ppm; for Disease Control Rating at 20 ppm: eggplant sprayed with 20 ppm; for Disease Control Rating at 100 ppm: eggplant sprayed with 100 ppm
Summary of the method: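 Protective test: compound formulations (2:3 acetone:water, 0.5% Tween 20; 500, 100 or 20 ppm) sprayed on 14-18-day-old plants, with spore inoculum (4×10^6 spore/mL) applied a day later. Disease control rated on Botrytis lesions after 3-4 days at 23 °C and 100% humidity.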

[3] = test system: Botrytis cinerea; experiment: Vine grey mold (grape berries); type: in vivo; conditions: average of six berries, 7-10 days; for pest or weed control at 50 ppm: grape berries treated with 50 ppm, read-out: % DISEASE CONTROL 50 ppm; for pest or weed control at 200 ppm: grape berries treated with 200 ppm, read-out: % DISEASE CONTROL 200 ppm
Summary of the method: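 Preventive berry test: compound at 50 or 200 ppm (acetone/water, 0.05% Tween 20) applied one day before inoculation with 10^6 spores/mL Botrytis conidia. After 7-10 days at 20 °C under 12 h light, infected surface area rated; disease control expressed as percent reduction from control mean; repeated-test values averaged.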

[4] = test system: Rhizoctonia solani; experiment: Rice sheath blight; type: in vivo; parameters: scale not given here; conditions: inoculated two days later, rated after 7 days, average of five plants; for Disease Control Rating at 0.02 mg/mL: foliage and soil sprayed with 0.02 mg/mL; for Disease Control Rating at 0.1 mg/mL: foliage and soil sprayed with 0.1 mg/mL; for Disease Control Rating at 0.5 mg/mL: foliage and soil sprayed with 0.5 mg/mL
Summary of the method: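 Rice plants 11–15 days old had foliage and soil sprayed with 0.5, 0.1 or 0.02 mg/mL Compound A in water/acetone/Tween 20, then kept in flooded trays. Two days later, rice-grain Rhizoctonia solani inoculum went to plant bases; disease control scored versus untreated after 7 days at 25 °C, high humidity, averaging five plants.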

T1 sequence (A0A384J5E4 1-300): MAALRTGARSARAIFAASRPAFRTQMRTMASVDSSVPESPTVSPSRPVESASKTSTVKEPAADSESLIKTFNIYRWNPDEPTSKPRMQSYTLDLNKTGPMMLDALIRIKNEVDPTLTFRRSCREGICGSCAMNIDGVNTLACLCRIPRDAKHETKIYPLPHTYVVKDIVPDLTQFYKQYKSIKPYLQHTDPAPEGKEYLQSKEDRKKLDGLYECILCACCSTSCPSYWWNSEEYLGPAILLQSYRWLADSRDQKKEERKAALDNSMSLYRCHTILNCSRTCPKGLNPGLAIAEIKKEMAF
T1 sequence (A0A384J8V8 1-189): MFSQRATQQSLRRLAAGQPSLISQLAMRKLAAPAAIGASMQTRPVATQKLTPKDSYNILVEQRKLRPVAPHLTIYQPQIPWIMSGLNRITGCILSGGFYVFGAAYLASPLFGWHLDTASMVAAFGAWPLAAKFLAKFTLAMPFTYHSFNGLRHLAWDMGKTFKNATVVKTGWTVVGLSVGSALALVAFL
T1 sequence (A0A384JHJ5 1-192): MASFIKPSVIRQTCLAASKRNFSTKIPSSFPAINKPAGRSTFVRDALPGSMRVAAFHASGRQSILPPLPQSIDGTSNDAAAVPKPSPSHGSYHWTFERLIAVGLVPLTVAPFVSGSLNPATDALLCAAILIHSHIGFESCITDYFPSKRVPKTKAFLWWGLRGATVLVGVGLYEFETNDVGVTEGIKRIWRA
T1 sequence (A0A384K456 1-647 partner): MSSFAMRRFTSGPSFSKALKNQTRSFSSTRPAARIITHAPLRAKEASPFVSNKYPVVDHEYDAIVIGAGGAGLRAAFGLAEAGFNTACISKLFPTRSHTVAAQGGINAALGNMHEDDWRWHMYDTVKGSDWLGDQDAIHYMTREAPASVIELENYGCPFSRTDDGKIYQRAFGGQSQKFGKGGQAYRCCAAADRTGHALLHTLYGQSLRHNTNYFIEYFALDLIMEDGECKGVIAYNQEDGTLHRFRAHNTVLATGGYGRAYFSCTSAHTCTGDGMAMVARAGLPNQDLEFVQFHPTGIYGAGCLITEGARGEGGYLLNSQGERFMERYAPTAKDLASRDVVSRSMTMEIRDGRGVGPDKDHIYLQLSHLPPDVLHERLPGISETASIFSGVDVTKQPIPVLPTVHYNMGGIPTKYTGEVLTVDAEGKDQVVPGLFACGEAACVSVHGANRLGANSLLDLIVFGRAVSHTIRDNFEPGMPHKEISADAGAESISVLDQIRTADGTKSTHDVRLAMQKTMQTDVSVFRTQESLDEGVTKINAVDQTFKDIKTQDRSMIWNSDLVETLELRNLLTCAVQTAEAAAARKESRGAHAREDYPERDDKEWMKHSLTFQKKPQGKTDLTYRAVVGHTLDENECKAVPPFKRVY

SMILES	IC50 [1] [µM]	Disease Control Rating at 500 ppm [2]	pest or weed control at 50 ppm [3] [%]	pest or weed control at 200 ppm [3] [%]	Disease Control Rating at 0.02 mg/mL [4]	Disease Control Rating at 0.1 mg/mL [4]	Disease Control Rating at 0.5 mg/mL [4]	Disease Control Rating at 20 ppm [2]	Disease Control Rating at 100 ppm [2]
CC(c1ccccc1NC(=O)c1cn(C)nc1C(F)(F)F)C1CCCC1 (stereo not shown) [Example 53, 1H-pyrazole-4-carboxamide, N-[2-(1-cyclopentylethyl)phenyl]-1-methyl-3-(trifluoromethyl)-]	0.021	0	40	70	2	3	3		
Cn1cc(C(=O)Nc2ccccc2OCCC2CCCC2)c(C(F)F)n1 [Example 54, 1H-pyrazole-4-carboxamide, N-[2-(2-cyclopentylethoxy)phenyl]-3-(difluoromethyl)-1-methyl-]	0.011	0	2	2			2		
Cn1cc(C(=O)Nc2ccccc2OCCC2CCCC2)c(C(F)(F)F)n1 [Example 55, 1H-pyrazole-4-carboxamide, N-[2-(2-cyclopentylethoxy)phenyl]-1-methyl-3-(trifluoromethyl)-]	0.027	0	11	0			0		
Cn1cc(C(=O)Nc2ccccc2C2CCCCC2)c(I)n1 [Example 56, 1H-pyrazole-4-carboxamide, N-[2-(cyclohexyl)phenyl]-3-iodo-1-methyl-]	0.013	0	46	70			0		
Cn1cc(C(=O)Nc2ccccc2C2CCCCCC2)c(I)n1 [Example 57, 1H-pyrazole-4-carboxamide, N-[2-(cycloheptyl)phenyl]-3-iodo-1-methyl-]	0.0047	0	53	72			0		
Cn1cc(C(=O)Nc2ccccc2C2CCCCC2)c(OC(F)F)n1 [Example 59]	1	0	0	0			0		
Cn1cc(C(=O)Nc2ccccc2C2CCCCCC2)c(OC(F)F)n1 [Example 60]	0.35	0	0	0			0		
O=C(Nc1ccccc1C1CCCCC1)c1cn(C(F)F)nc1C(F)F [Example 61, 1H-pyrazole-4-carboxamide, N-(2-cyclohexylphenyl)-1,3-bis(difluoromethyl)-]	0.19	1	0	0			0		
Cn1cc(C(=O)Nc2ccccc2C2CCCCC2)c([N+](=O)[O-])n1 [Example 62, 1H-pyrazole-4-carboxamide, N-(2-cyclohexylphenyl]-1-methyl-3-nitro-]	0.29	1	0	0			0	0	0
Cn1cc(C(=O)Nc2ccccc2C2CCCCCC2)c(Br)n1 [Example 63, 1H-pyrazole-4-carboxamide, 3-bromo-N-(2-cycloheptylphenyl)-1-methyl-]	0.0063	1	34	65	2	3	3		
Cn1cc(C(=O)Nc2ccccc2C2CCCC2)c(Br)n1 [Example 64, 1H-pyrazole-4-carboxamide, 3-bromo-N-(2-cyclopentylphenyl)-1-methyl-]	0.047	2	10	28	1	3	3	1	1
Cc1nn(C)c(C)c1C(=O)Nc1ccccc1C1CCCCCC1 [Example 66, 1H-pyrazole-4-carboxamide, N-(2-cycloheptylphenyl)-1,3,5-trimethyl-]	0.048	2	32	35	3	3	3	0	0
Cn1cc(C(=O)Nc2ccccc2C2(C)CCCC2)c(C(F)(F)F)n1 [Example 67, 1H-pyrazole-4-carboxamide, 1-methyl-N-[2-(1-methylcyclopentyl)phenyl]-3-(trifluoromethyl)-]	0.056	2	31	0			2	0	1
Cn1cc(C(=O)Nc2ccccc2C2CCCCCCC2)c(I)n1 [Example 68, 1H-pyrazole-4-carboxamide, N-(2-cyclooctylphenyl)-3-iodo-1-methy1-]	0.0037	1	78	89	2	3	3		
Cn1cc(C(=O)Nc2ccccc2C2CCCC2)c(I)n1 [Example 69, 1H-pyrazole-4-carboxamide, N-(2-cyclopentylphenyl)-3-iodo-1-methy1-]	0.033	0	30	70	0	2	3		
Cn1cc(C(=O)Nc2ccccc2O[C@H]2CC[C@@H](C)CC2)c(C(F)(F)F)n1 [Example 72, 1H-pyrazole-4-carboxamide, 1-methyl-N-[2-[(4-methylcyclohexyl)oxy]phenyl]-3-(trifluoromethyl)-, cis-]	0.031	0	0	0			0		
Cn1cc(C(=O)Nc2ccccc2O[C@H]2CC[C@H](C)CC2)c(C(F)(F)F)n1 [Example 73, 1H-pyrazole-4-carboxamide, 1-methyl-N-[2-[(4-methylcyclohexyl)oxy]phenyl]-3-(trifluoromethyl)-, trans-]	0.0076	0	8	0			2		
C[C@@H]1CCC[C@H](C)[C@@H]1Oc1ccccc1NC(=O)c1cn(C)nc1C(F)(F)F [Example 74, 1H-pyrazole-4-carboxamide, 1-methyl-N-[2-[(2,6-dimethylcyclohexyl)oxy]phenyl]-3-(trifluoromethyl)-, (lalpha,2alpha,6alpha)-]	0.09	1	4	0			0	0	0
C[C@@H]1CCC[C@H](C)[C@H]1Oc1ccccc1NC(=O)c1cn(C)nc1C(F)(F)F [Example 76, 1H-pyrazole-4-Carboxamide, 1 methyl-N-[2-[(2,6-dimethylcyclohexyl)oxy]phenyl]-3-(trifluoromethyl)-, (1alpha,2beta,6beta)-]	0.032	0	8	0			0		
Cn1cc(C(=S)Nc2ccccc2C2CCCCC2)c(C(F)F)n1 [Example 77, 1H-pyrazole-4-carbothioamide, N-(2-cyclohexylphenyl)-3-(difluoromethyl)-1-methyl]	22	2	85	82			0	0	1

— patent US5223526A, “Pyrazole carboxanilide fungicides and use” (Monsanto Company, priority 1992, dated 1993)
